Measured values taken from PMC6273328, “Simultaneous Determination of Purpurin, Munjistin and Mollugin in Rat Plasma by Ultra High Performance Liquid Chromatography-Tandem Mass Spectrometry: Application to a Pharmacokinetic Study after Oral Administration of Rubia cordifolia L. Extract” (Molecules, 2016).
Like-named read-outs stand apart in the source and are kept apart here.

How the values were obtained:
[1] = Stability of the analytes in rat plasma (QC samples); assay type: in vitro ADME; conditions: n = 6; for Stability (% RE) Post-Preparative: extracted plasma samples, 12 h at 4 °C after preparation; for Stability (% RE) Short-Term / Stability (% RE) Long-Term / Stability (% RE) Three Freeze-Thaw: rat plasma; for Stability (% RE) Short-Term: 4 h at ambient temperature; for Stability (% RE) Long-Term: storage for 2 weeks at −20 °C; for Stability (% RE) Three Freeze-Thaw: three freeze (−20 °C) and thaw cycles
Experimental: To study the stability, QC samples of the three analytes at three QC levels (LQC, MQC, and HQC) were added into drug-free plasma samples and each levels contained six replicates. Four different manipulations were designed to assess the stability involving short-term stability (storage for 4 h at ambient temperature), long-term stability (storage for 2 weeks at −20 °C), freeze-thaw stability (three freeze at −20 °C and thaw cycles), and post-preparative stability (storage for 12 h after sample preparation at 4 °C). A series of concentrations of stability testing QC samples was obtained by the calibration curve which was established from freshly prepared standard samples.

[2] = Pharmacokinetic study in rats after oral administration of R. cordifolia extract (UHPLC-MS/MS of plasma); assay type: in vivo, Sprague-Dawley (SD) rats; conditions: male, Sprague-Dawley
Experimental: The UHPLC-MS/MS method described herein was applied to investigate the pharmacokinetics of the three constituents in R. cordifolia after a single oral administration of 0.82 g/kg of extract (equivalent to 6.3 μg/g for mollugin, 1.3 μg/g for munjistin, and 0.68 μg/g for purpurin) to twelve rats. We determined the oral dosage for the rats corresponding to the human dosage recommended in the Chinese Pharmacopoeia (2015 edition). The human dosage of R. cordifolia in the Chinese Pharmacopoeia is 10 g/day, so we calculated the final oral dosage as 0.82 g/kg in rats based on the Meeh-Rubn method.
Twelve male Sprague-Dawley (SD) rats (body weight 220 ± 20 g) were obtained from the experimental animal center of Harbin Medical University and adapted to a constant-temperature (25 °C) room. The animal handling procedures were approved by the institutional ethics committee and conformed to the principles of the International Guide for the Care and Use of Laboratory Animals. Before the experiment, the rats were fasted for 12 h and had access to water during the research period. Blood (0.4 mL) was collected from the orbital venous plexus at several specific time points (0, 0.33, 0.67, 1, 1.3, 1.67, 2, 2.5, 3, 4, 6, 8, 12 and 24 h) after the oral administration of R. cordifolia (0.82 g/kg). After centrifugation at 12000 rpm for 5 min, the plasma was collected immediately and stored at −20 °C until sample analysis.
Before the experiment, the plasma samples were thawed naturally at room temperature. As a liquid-liquid extraction method, 100 μL of methanol and 50 μL of I.S. (2000 ng/mL) were added to a rat plasma sample (100 μL), and then the content was mixed by a vortex mixer for 30 s. After this step, a 3 mL aliquot of ethyl acetate (extraction agent) was accurately added and the mixture vortexed for 60 s. Then the samples were put into a centrifuge. The organic supernatant was pipetted into clean glass tubes individually after centrifugation 4000 rpm for 5 min. The upper organic layer was removed and evaporated to dryness at 40 °C under a stream of nitrogen. The residue was then reconstituted with 100 μL of mobile phase (5 mM ammonium acetate in water/methanol, 10:90, v/v), vortexed for 30 s and filtered by a 0.22 μm membrane. A 5 μL aliquot of the solution was injected into the UHPLC-MS/MS system for analysis.
Noncompartmental methods were applied to calculate the following pharmacokinetic parameters. The peak plasma concentration (Cmax) and the time of maximum plasma concentration (Tmax) were observed directly from the measured data. The elimination rate constant (Ke) was calculated using the linear regression of the terminal points in a semi-log plot of the plasma concentration against time. The elimination half-life (t1/2) was calculated using the formula: t1/2 = 0.693/Ke
The area under the peak plasma concentration-time curve (AUC0→t) to the last measurable plasma concentration (Ct) was estimated using the linear trapezoidal rule. The area under the plasma concentration-time curve to time infinity (AUC0→∞) was calculated as following: AUC0→∞ = AUC0-t + Ct/Ke

[3] = medium QC (26.4/51.5/245 ng/mL)
[4] = high QC (211/412/1960 ng/mL purpurin/munjistin/mollugin)
[5] = low QC (0.528/1.03/4.90 ng/mL purpurin/munjistin/mollugin)
[6] = medium QC (26.4/51.5/245 ng/mL purpurin/munjistin/mollugin)

Row | SMILES | Stability (% RE) Post-Preparative ([1]; high QC (211/412/1960 ng/mL)) [% RE] | Stability (% RE) Post-Preparative ([1]; low QC (0.528/1.03/4.90 ng/mL)) [% RE] | Stability (% RE) Post-Preparative [1, 3] [% RE] | Stability (% RE) Short-Term ([1]; high QC (211/412/1960 ng/mL)) [% RE] | Stability (% RE) Short-Term ([1]; low QC (0.528/1.03/4.90 ng/mL)) [% RE] | Stability (% RE) Short-Term [1, 3] [% RE] | Stability (% RE) Long-Term ([1]; high QC (211/412/1960 ng/mL)) [% RE] | Stability (% RE) Long-Term ([1]; low QC (0.528/1.03/4.90 ng/mL)) [% RE] | Stability (% RE) Long-Term [1, 3] [% RE] | Stability (% RE) Three Freeze-Thaw [1, 4] [% RE] | Stability (% RE) Three Freeze-Thaw [1, 5] [% RE] | Stability (% RE) Three Freeze-Thaw [1, 6] [% RE] | AUC(0-inf) ([2]; rat, in vivo, po, 0.82 g/kg) [ng·h/mL] | AUC(0-t) ([2]; rat, in vivo, po, 0.82 g/kg) [ng·h/mL] | Cmax ([2]; rat, in vivo, po, 0.82 g/kg) [ng/mL] | Tmax ([2]; rat, in vivo, po, 0.82 g/kg) [h] | half-life ([2]; rat, in vivo, po, 0.82 g/kg) [h] | further results
1 | COC(=O)c1c2c(c3ccccc3c1O)OC(C)(C)C=C2 [Mollugin, mollugin] | 14.38 | 11.15 | 0.65 | −8.69 | 9.90 | −4.35 | −8.55 | 4.57 | −0.17 | −13.17 | 10.26 | 8.78 | – | – | – | – | – | half-life ([2]; rat plasma, single oral 0.82 g/kg R. cordifolia extract, mean ± SD, n = 12, non-compartment model, read-out: t1/2 (converted)): 9.02 ± 2.14 h; AUC(0-t) ([2]; rat plasma, single oral 0.82 g/kg R. cordifolia extract, mean ± SD, n = 12, read-out: AUC0→t): 232 ± 57.6 ng·h/mL; AUC(0-inf) ([2]; rat plasma, single oral 0.82 g/kg R. cordifolia extract, mean ± SD, n = 12, read-out: AUC0→∞): 296 ± 40.9 ng·h/mL; Cmax ([2]; rat plasma, single oral 0.82 g/kg R. cordifolia extract, mean ± SD, n = 12, read-out: Cmax): 52.1 ± 6.71 ng/mL; Tmax ([2]; rat plasma, single oral 0.82 g/kg R. cordifolia extract, mean ± SD, n = 12, read-out: Tmax): 1.99 ± 0.21 h
2 | O=C1c2ccccc2C(=O)c2c1cc(O)c(C(=O)O)c2O [Munjistin, munjistin] | −10.15 | 11.15 | 7.04 | 7.31 | 11.56 | 6.73 | −0.77 | 13.97 | 5.56 | −2.82 | 9.04 | 9.46 | 136 ± 21.2 | 110 ± 20.1 | 26.1 ± 6.59 | 2.58 ± 0.19 | 9.22 ± 2.75 | –
3 | O=C1c2ccccc2C(=O)c2c(O)c(O)cc(O)c21 [Purpurin, purpurin] | 13.68 | −14.02 | −2.00 | 14.76 | −13.38 | −5.35 | 12.08 | −2.59 | −2.68 | 14.76 | 1.92 | −5.35 | 243 ± 35.9 | 206 ± 36.1 | 70.1 ± 11.8 | 1.61 ± 0.24 | 9.52 ± 2.68 | –
